Patent US20070082915A1 (priority 2003, published 2007)
Like-named read-outs stand apart in the source and are kept apart here.

System: Pyricularia oryzae
Type: in vivo
Conditions: individual active compound, protective spray, inoculated next day, rated after 6 days

Structure (SMILES)	Efficacy in % of the untreated control (1 ppm in the spray liquor)	Efficacy in % of the untreated control (4 ppm in the spray liquor)
CC1CCN(c2c(-c3c(F)cccc3Cl)c(Cl)nc3ncnn23)CC1 [A]	0%	11%
CC(Nc1c(-c2c(F)cc(F)cc2F)c(Cl)nc2ncnn12)C(F)(F)F (centres unmarked) [B]	11%	33%
CC1CCN(c2c(-c3c(F)cc(F)cc3F)c(Cl)nc3ncnn23)CC1 [I, 5-chloro-7-(4-methylpiperidin-1-yl)-6-(2,4,6-trifluorophenyl)-[1,2,4]triazolo[1,5-a]pyrimidine]	11%	33%
CCCC1COC(Cn2cncn2)(c2ccc(Cl)cc2Cl)O1 (centres unmarked) [II, 1-[2-(2,4-dichlorophenyl)-4-propyl-[1,3]dioxolan-2-ylmethyl]-1H-[1,2,4]triazole]	0%	0%
